Where two headings read alike, the source gives them in different places. Starred links: 1 amine or outer side, 2 acyl side, 3 side chain; linkers in the order of their positions; H or OH if unused. Positions of bridges follow the written chain, without caps; N, C: chain ends. Non-standard residues stand in square brackets, D forms with d. Residues, ends and D or L forms follow the SMILES beside them. Pen = CC(C)(S)[C@H](N)C(=O)O; hCys = N[C@@H](CCS)C(=O)O; Dab = NCC[C@H](N)C(=O)O; X2 = O=C(C[*:1])[*:2]
Experiments:
[1] = Evaluation of molecule stability (alkali treatment, residual rate by LC/MS); format: physicochemical; details: for Stability (molecule stability, residual rate of the cyclic peptide rank): alkali treatment, residual rate by LC/MS; for Performance evaluation: Stability (residual rate of cyclic peptide after alkali treatment): 500 μM peptide aqueous solution plus equivalent of 1 M sodium hydroxide, 15° C., 3 hours, LC/MS peak area
In short: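 500 μM aqueous cyclic peptide mixed with an equal volume of 1 M NaOH and held 3 h at 15 °C. Residual rate is total LC/MS peak area after treatment relative to untreated (100%), using a C18 column, pH 3 ammonium formate/acetonitrile gradient, 45 °C, ESI±.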

human integrin αvβ5 = human integrin αvβ5 (Homo sapiens, UniProt P06756+P18084); assay: Evaluation of integrin binding property (surface plasmon resonance, Biacore 3000, immobilized cyclic peptide)
human integrin αvβ5, sequence (P06756 31-1048): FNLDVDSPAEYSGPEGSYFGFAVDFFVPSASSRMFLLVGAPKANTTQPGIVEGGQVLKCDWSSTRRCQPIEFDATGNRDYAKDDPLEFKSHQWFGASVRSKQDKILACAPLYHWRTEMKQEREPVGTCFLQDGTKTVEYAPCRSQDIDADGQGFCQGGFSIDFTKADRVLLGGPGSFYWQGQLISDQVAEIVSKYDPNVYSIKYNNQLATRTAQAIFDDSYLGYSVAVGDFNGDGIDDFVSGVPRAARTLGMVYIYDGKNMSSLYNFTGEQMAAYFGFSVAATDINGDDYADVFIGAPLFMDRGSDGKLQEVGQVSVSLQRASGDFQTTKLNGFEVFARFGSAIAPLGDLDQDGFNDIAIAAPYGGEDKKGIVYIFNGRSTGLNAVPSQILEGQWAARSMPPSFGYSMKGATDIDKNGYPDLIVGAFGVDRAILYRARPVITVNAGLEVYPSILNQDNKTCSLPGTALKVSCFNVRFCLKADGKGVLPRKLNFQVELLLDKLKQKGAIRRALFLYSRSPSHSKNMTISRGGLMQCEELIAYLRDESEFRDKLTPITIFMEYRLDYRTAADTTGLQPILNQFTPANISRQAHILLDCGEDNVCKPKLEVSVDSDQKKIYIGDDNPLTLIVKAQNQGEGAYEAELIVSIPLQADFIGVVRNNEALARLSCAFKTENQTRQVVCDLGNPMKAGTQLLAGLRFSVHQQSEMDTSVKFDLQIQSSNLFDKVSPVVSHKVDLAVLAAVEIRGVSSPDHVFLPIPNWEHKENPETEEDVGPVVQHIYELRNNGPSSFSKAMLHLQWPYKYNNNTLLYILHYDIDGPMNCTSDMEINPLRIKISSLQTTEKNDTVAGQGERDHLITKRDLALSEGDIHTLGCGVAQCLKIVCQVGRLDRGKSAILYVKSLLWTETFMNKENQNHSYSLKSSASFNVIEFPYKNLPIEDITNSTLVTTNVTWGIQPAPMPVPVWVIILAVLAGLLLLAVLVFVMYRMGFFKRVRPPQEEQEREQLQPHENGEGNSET
human integrin αvβ5, sequence (P18084 24-799): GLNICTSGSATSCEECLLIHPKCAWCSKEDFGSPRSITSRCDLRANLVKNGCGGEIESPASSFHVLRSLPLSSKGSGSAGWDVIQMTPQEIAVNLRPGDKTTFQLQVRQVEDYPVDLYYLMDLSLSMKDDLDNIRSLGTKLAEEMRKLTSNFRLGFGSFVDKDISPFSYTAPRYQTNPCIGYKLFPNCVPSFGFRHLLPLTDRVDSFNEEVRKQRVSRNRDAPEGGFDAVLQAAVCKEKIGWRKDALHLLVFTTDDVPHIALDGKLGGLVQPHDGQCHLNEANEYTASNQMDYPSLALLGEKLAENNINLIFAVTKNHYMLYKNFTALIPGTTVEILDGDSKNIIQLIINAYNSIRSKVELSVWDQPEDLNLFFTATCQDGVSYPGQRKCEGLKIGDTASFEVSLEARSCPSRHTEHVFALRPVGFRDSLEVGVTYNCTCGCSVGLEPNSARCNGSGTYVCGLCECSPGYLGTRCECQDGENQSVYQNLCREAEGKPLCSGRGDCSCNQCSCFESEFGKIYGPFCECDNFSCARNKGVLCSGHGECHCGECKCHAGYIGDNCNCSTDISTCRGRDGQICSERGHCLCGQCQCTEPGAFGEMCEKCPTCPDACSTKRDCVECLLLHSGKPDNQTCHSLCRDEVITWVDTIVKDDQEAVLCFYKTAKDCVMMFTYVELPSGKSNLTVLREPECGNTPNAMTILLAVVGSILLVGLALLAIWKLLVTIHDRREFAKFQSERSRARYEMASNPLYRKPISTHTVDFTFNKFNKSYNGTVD
In short: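 SPR with cyclic peptide amine-coupled via EDC/NHS to a CM5 chip, blank channel as reference. Integrin αvβ5 at 30, 100, 300 and 1,000 nM injected 10 min at 25 °C in HEPES buffer pH 7.4 with 5 mM MgCl2, 30 min buffer flow, EDTA regeneration; Kd from reference-subtracted signals, graded by category.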

[2] = surface plasmon resonance, immobilized cyclic peptide, human integrin αvβ5, read-out: Binding activity (integrin binding property, dissociation constant rank)
[3] = SPR, 25° C., HEPES buffer with 5 mM magnesium chloride, integrin 30-1,000 nM, read-out: Performance evaluation: Binding activity (dissociation constant between the cyclic peptide and human integrin αvβ5)

SMILES	Kd (human integrin αvβ5; [2]) [nM]	Kd (human integrin αvβ5; [3]) [nM]	Stability (molecule stability, residual rate of the cyclic peptide rank) [1]	Performance evaluation: Stability (residual rate of cyclic peptide after alkali treatment) [1]
CC(C)[C@@H]1NC(=O)[C@@H](NC(=O)[C@H](C)NC(=O)[C@H](CCCCN)NC(=O)[C@H](CCCCN)NC(=O)[C@H](CCCCN)NC(=O)[C@@H](N)CCCCN)CCSCC(=O)NCC[C@@H](C(=O)N[C@@H](C)C(=O)O)NC(=O)[C@H](C)NC(=O)[C@H](Cc2ccccc2)NC(=O)[C@H]([C@@H](C)O)NC(=O)[C@H](CC(=O)O)NC(=O)CNC(=O)[C@H](CCCNC(=N)N)NC(=O)[C@@H]2CCCN2C1=O [Cyclic peptide 110, KKKKA-(Hcy)-VPRGDTFA(Dab(acetyl))A] (H-KKKKA[hCys]VPRGDTFA[Dab]A-OH; linker 6-15 via X2)	< 50		A (The residual rate of the cyclic peptide is 70% or more.)	
CC[C@H](C)[C@@H]1NC(=O)[C@@H](NC(=O)[C@H](C)NC(=O)[C@H](CCCCN)NC(=O)[C@H](CCCCN)NC(=O)[C@@H](N)CCCCN)CCSCC(=O)NCC[C@@H](C(=O)N[C@@H](C)C(=O)O)NC(=O)[C@H](C)NC(=O)[C@H](Cc2ccccc2)NC(=O)[C@H]([C@@H](C)O)NC(=O)[C@H](CC(=O)O)NC(=O)CNC(=O)[C@H](CCCNC(=N)N)NC(=O)[C@@H]2CCCN2C1=O [Cyclic peptide 87, KKKA-(Hcy)-IPRGDTFA(Dab(acetyl))A] (H-KKKA[hCys]IPRGDTFA[Dab]A-OH; linker 5-14 via X2)		< 50		A (The residual rate of the cyclic peptide is 70% or more.)
CC(C)[C@@H]1NC(=O)[C@@H](NC(=O)CNC(=O)[C@H](CCCCN)NC(=O)[C@H](CCCCN)NC(=O)[C@@H](N)CCCCN)CCSCC(=O)NCC[C@@H](C(=O)NCC(=O)O)NC(=O)[C@H](C)NC(=O)[C@H](Cc2ccccc2)NC(=O)[C@H](CO)NC(=O)[C@H](CC(=O)O)NC(=O)CNC(=O)[C@H](CCCNC(=N)N)NC(=O)[C@@H]2CCCN2C1=O [Cyclic peptide 99, KKKG-(Hcy)-VPRGDSFA(Dab(acetyl))G] (H-KKKG[hCys]VPRGDSFA[Dab]G-OH; linker 5-14 via X2)		< 50		A (The residual rate of the cyclic peptide is 70% or more.)
CC[C@H](C)[C@@H]1NC(=O)[C@@H](NC(=O)[C@H](CCCCN)NC(=O)[C@H](CCCCN)NC(=O)[C@@H](N)CCCCN)CCSCC(=O)NCC[C@@H](C(=O)N[C@@H](C)C(=O)O)NC(=O)[C@H](Cc2ccccc2)NC(=O)[C@H]([C@@H](C)O)NC(=O)[C@H](CC(=O)O)NC(=O)CNC(=O)[C@H](CCCNC(=N)N)NC(=O)[C@@H]2CCCN2C1=O [Cyclic peptide 60, KKK-(Hcy)-IPRGDTF(Dab(acetyl))A] (H-KKK[hCys]IPRGDTF[Dab]A-OH; linker 4-12 via X2)		< 50		A (The residual rate of the cyclic peptide is 70% or more.)
CC[C@H](C)[C@@H]1NC(=O)[C@@H](NC(=O)CNC(=O)[C@H](CCCCN)NC(=O)[C@H](CCCCN)NC(=O)[C@@H](N)CCCCN)C(C)(C)SCC(=O)NCCCC[C@@H](C(=O)N[C@@H](C)C(=O)O)NC(=O)[C@H](CCCNC(=N)N)NC(=O)[C@H](Cc2ccccc2)NC(=O)[C@H]([C@@H](C)O)NC(=O)[C@H](CC(=O)O)NC(=O)CNC(=O)[C@H](CCCNC(=N)N)NC(=O)[C@@H]2CCCN2C1=O [Cyclic peptide 131, KKKG-(Pen)-IPRGDTFR(Lys(acetyl))A] (H-KKKG[Pen]IPRGDTFRKA-OH; linker 5-14 via X2)	50 to 100		A (The residual rate of the cyclic peptide is 70% or more.)	
CC(C)[C@@H]1NC(=O)[C@@H](NC(=O)[C@H](C)N)CCSCC(=O)NCC[C@@H](C(=O)N[C@@H](C)C(=O)O)NC(=O)[C@H](C)NC(=O)[C@H](Cc2ccccc2)NC(=O)[C@H]([C@@H](C)O)NC(=O)[C@H](CC(=O)O)NC(=O)CNC(=O)[C@H](CCCNC(=N)N)NC(=O)[C@@H]2CCCN2C1=O [Cyclic peptide 125, A-(Hcy)-VPRGDTFA(Dab(acetyl))A] (H-A[hCys]VPRGDTFA[Dab]A-OH; linker 2-11 via X2)	< 50		A (The residual rate of the cyclic peptide is 70% or more.)	

The next lines start with results.

Kd (human integrin αvβ5; [2]) [nM]	Kd (human integrin αvβ5; [3]) [nM]	SMILES	Stability (molecule stability, residual rate of the cyclic peptide rank) [1]	Performance evaluation: Stability (residual rate of cyclic peptide after alkali treatment) [1]
	50 to 100	CC[C@H](C)[C@@H]1NC(=O)[C@H](C)NC(=O)[C@H](C)NC(=O)[C@@H](NC(=O)[C@H](CCCCN)NC(=O)[C@H](CCCCN)NC(=O)[C@@H](N)CCCCN)CCSCC(=O)NCC[C@@H](C(=O)N[C@@H](C)C(=O)O)NC(=O)[C@H](CCCNC(=N)N)NC(=O)[C@H](Cc2ccccc2)NC(=O)[C@H](CC(N)=O)NC(=O)[C@H](CC(=O)O)NC(=O)CNC(=O)[C@H](CCCNC(=N)N)NC(=O)[C@@H]2CCCN2C1=O [Cyclic peptide 18, KKK-(Hcy)-AAIPRGDNFR(Dab(acetyl))A] (H-KKK[hCys]AAIPRGDNFR[Dab]A-OH; linker 4-15 via X2)		A (The residual rate of the cyclic peptide is 70% or more.)
	< 50	CC[C@H](C)[C@@H]1NC(=O)[C@@H](NC(=O)[C@H](C)NC(=O)[C@H](CCCCN)NC(=O)[C@H](CCCCN)NC(=O)[C@@H](N)CCCCN)CCSCC(=O)NCC[C@@H](C(=O)N[C@@H](C)C(=O)O)NC(=O)[C@H](C)NC(=O)[C@H](Cc2ccccc2)NC(=O)[C@H](C)NC(=O)[C@H](CC(=O)O)NC(=O)CNC(=O)[C@H](CCCNC(=N)N)NC(=O)[C@@H]2CCCN2C1=O [Cyclic peptide 90, KKKA-(Hcy)-IPRGDAFA(Dab(acetyl))A] (H-KKKA[hCys]IPRGDAFA[Dab]A-OH; linker 5-14 via X2)		A (The residual rate of the cyclic peptide is 70% or more.)
	< 50	CC[C@H](C)[C@@H]1NC(=O)[C@@H](NC(=O)[C@H](CCCCN)NC(=O)[C@H](CCCCN)NC(=O)[C@@H](N)CCCCN)CCSCC(=O)NCC[C@@H](C(=O)N[C@@H](C)C(=O)O)NC(=O)[C@H](CCCNC(=N)N)NC(=O)[C@H](Cc2ccccc2)NC(=O)[C@H]([C@@H](C)O)NC(=O)[C@H](CC(=O)O)NC(=O)CNC(=O)[C@H](CCCNC(=N)N)NC(=O)[C@@H]2CCCN2C1=O [Cyclic peptide 57, KKK-(Hcy)-IPRGDTFR(Dab(acetyl))A] (H-KKK[hCys]IPRGDTFR[Dab]A-OH; linker 4-13 via X2)		A (The residual rate of the cyclic peptide is 70% or more.)
	< 50	CC[C@H](C)[C@@H]1NC(=O)[C@@H](NC(=O)CNC(=O)[C@H](CCCCN)NC(=O)[C@H](CCCCN)NC(=O)[C@@H](N)CCCCN)CCSCC(=O)NCC[C@@H](C(=O)N[C@@H](C)C(=O)O)NC(=O)[C@H](C)NC(=O)[C@H](Cc2ccccc2)NC(=O)[C@H](CO)NC(=O)[C@H](CC(=O)O)NC(=O)CNC(=O)[C@H](CCCNC(=N)N)NC(=O)[C@@H]2CCCN2C1=O [Cyclic peptide 94, KKKG-(Hcy)-IPRGDSFA(Dab(acetyl))A] (H-KKKG[hCys]IPRGDSFA[Dab]A-OH; linker 5-14 via X2)		A (The residual rate of the cyclic peptide is 70% or more.)

— US12673975B2, “Cyclic peptide, cell scaffold material, cell separating material, and medium” (FUJIFILM Corporation, priority 2019, dated 2026)
